Data from patent publication US20060275339A1, “Use of antiseptic active principles in pmma bone cements” (Biomet Deutschland, priority 2003, published 2006).

Tested on: germs
Assay: Prevention of colonisation of the PMMA bone cement surface with germs (FIGS. 1a and 1b)
Assay type: cell-based
Settings: 0.155% by weight admixed with PMMA bone cement (PALAMED plain); compared with admixing of 0.86% by weight of gentamicin

Substance: polyhexamethylenebiguanide
- biological efficacy in preventing colonisation of the cement surface with germs: same (or higher) biological efficacy
